# Results published in patent US20200107549A1, “Enhancement of seed germination and plant growth under conditions of stress with pterostilbene, ellagic acid, nicotinamide riboside, and their combinations” (priority 2018, published 2020).
# Tested on: rice seeds
# Test: rice seed germination in artificial paddy
# Assay type: in vivo, Oryza sativa (Rice)
# Settings: seeds incubated in 1 micromolar NR; water deprivation paddy, 37 seeds; only 1 seed germinated in that paddy's control
# Method: Conditions of “water deprivation” in this specification refers to the administration of less water than required for a seed to germinate typically. In the experiments described below, seeds subjected to a condition of “water deprivation” were given 2 mL of water 3 times a week, as opposed to 5 mL. In the rice experiment, the seeds subjected to “water deprivation” were not given any water after their planting in the artificial paddy. 5 mL of the solutions of the 3 compounds or combinations was placed in a small size weigh boats, along with water as the control. Up to 50 seeds were placed in the weigh boats. Incubation periods ranged from 18-24 hours at room temperature (recorded range of 55-65° F.). The seeds were then either placed in a germination chamber or planted in potting soil, as described below. For the rice plants, an artificial paddy field was built using two plastic bins filled with soil, and filled with water to a depth of 4 inches. A divider comprising of sticks was placed to delineate the experimental conditions comparing water soaked seeds or NR soaked seeds. In one paddy, water was replenished until germination was observed; the other received no added water. The bins were left outside for a total of 6 weeks; the daily temperatures ranged between 50 F to 95 F, and no rainfall was recorded during the experimental period. […]
smiles,measurement,value
"NC(=O)c1ccc[n+]([C@@H]2O[C@H](CO)[C@@H](O)[C@H]2O)c1 [NR, Nicotinamide riboside]",seeds germinated,32%
